In patent US9592221B2, “Antibacterial agents: aryl myxopyronin derivatives” (priority 2012, dated 2017) one finds IC50 and MIC data, which are given here for 15 compounds.

≈ marks a conversion by molar mass, not a printed value.

The target of assay [1] is M. tuberculosis RNA polymerase core enzyme, M. tuberculosis σ^A (Mycobacterium tuberculosis, UniProt P9WGY7+P9WGY9). Nature of the assay: Fluorescence-detected RNA polymerase assay, M. tuberculosis RNA polymerase. Type of assay: biochemical. The note with it: read-out: IC50 M. tuberculosis RNAP.
Assay [2] deals with Staphylococcus aureus ATCC 12600. The assay can be described thus: MIC, spiral gradient endpoint assay, S. aureus ATCC 12600. The following applies: ATCC12600; Staphylococcus aureus ATCC 12600. Type of assay: cell-based.
Assay [3] deals with Escherichia coli D21f2tolC. Nature of the assay: MIC, spiral gradient endpoint assay, E. coli D21f2tolC. Type of assay: cell-based. The note with it: Escherichia coli, D21F2TOLC, read-out: MIC E. coli D21f2toIC.
Assay [4] deals with S. aureus RNA polymerase core enzyme, S. aureus σ^A (Staphylococcus aureus, UniProt P47768+Q2G0N5). The assay can be described thus: Fluorescence-detected RNA polymerase assay, S. aureus RNA polymerase. The class given is biochemical. The following applies: read-out: IC50 S. aureus RNAP.
Chain of S. aureus RNA polymerase core enzyme, S. aureus σ^A (Q2G0N5 whole entry): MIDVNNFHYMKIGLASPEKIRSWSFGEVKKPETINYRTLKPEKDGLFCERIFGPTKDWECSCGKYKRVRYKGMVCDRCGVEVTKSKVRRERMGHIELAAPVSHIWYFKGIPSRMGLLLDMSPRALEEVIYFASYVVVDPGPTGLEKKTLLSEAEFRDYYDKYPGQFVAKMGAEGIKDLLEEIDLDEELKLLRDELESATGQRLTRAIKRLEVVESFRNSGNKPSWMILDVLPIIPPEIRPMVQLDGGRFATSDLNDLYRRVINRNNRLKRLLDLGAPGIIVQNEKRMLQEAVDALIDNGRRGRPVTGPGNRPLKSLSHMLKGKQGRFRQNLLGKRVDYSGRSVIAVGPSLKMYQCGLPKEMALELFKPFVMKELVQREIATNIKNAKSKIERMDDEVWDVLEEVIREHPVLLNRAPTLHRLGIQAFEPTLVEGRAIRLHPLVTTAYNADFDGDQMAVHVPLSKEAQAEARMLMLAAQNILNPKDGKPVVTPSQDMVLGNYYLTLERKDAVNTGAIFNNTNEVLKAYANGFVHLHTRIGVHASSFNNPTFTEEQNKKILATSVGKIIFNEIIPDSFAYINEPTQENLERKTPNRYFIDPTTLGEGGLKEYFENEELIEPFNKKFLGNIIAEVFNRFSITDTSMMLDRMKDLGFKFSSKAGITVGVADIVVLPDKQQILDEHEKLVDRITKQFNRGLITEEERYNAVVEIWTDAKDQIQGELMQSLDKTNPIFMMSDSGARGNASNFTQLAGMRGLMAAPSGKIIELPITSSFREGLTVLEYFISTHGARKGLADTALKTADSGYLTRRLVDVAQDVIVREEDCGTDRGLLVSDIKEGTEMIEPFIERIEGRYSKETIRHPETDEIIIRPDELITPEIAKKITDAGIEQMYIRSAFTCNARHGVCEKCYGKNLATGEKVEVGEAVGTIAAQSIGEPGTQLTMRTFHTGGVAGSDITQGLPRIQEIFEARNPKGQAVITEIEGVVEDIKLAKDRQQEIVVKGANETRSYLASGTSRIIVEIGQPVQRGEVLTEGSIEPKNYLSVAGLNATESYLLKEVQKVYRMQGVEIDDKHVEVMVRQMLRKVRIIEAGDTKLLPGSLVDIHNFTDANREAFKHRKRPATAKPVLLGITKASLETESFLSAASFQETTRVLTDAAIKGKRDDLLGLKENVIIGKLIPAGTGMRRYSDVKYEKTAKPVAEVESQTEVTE
Chain of S. aureus RNA polymerase core enzyme, S. aureus σ^A (Q2FW32 whole entry, further chain): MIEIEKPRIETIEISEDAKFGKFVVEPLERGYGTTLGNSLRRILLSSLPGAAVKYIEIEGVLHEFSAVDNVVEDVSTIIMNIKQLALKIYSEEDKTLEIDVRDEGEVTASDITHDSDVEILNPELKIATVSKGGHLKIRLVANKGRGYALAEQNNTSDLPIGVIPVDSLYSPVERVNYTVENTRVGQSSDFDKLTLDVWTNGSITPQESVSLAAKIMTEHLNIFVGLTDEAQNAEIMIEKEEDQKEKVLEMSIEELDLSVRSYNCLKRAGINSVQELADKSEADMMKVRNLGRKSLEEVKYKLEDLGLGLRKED
Chain of S. aureus RNA polymerase core enzyme, S. aureus σ^A (P0A0J0 whole entry, further chain): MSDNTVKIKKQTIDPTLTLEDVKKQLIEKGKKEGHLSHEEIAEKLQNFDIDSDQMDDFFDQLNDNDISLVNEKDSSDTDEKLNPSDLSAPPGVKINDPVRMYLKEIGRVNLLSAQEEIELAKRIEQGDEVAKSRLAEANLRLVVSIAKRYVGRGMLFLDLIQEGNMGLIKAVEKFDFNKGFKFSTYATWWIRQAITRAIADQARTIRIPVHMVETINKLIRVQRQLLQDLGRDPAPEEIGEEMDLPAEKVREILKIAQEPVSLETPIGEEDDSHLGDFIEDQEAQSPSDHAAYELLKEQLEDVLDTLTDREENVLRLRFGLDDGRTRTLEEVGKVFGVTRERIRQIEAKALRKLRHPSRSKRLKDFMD
Chain of S. aureus RNA polymerase core enzyme, S. aureus σ^A (P47768 whole entry): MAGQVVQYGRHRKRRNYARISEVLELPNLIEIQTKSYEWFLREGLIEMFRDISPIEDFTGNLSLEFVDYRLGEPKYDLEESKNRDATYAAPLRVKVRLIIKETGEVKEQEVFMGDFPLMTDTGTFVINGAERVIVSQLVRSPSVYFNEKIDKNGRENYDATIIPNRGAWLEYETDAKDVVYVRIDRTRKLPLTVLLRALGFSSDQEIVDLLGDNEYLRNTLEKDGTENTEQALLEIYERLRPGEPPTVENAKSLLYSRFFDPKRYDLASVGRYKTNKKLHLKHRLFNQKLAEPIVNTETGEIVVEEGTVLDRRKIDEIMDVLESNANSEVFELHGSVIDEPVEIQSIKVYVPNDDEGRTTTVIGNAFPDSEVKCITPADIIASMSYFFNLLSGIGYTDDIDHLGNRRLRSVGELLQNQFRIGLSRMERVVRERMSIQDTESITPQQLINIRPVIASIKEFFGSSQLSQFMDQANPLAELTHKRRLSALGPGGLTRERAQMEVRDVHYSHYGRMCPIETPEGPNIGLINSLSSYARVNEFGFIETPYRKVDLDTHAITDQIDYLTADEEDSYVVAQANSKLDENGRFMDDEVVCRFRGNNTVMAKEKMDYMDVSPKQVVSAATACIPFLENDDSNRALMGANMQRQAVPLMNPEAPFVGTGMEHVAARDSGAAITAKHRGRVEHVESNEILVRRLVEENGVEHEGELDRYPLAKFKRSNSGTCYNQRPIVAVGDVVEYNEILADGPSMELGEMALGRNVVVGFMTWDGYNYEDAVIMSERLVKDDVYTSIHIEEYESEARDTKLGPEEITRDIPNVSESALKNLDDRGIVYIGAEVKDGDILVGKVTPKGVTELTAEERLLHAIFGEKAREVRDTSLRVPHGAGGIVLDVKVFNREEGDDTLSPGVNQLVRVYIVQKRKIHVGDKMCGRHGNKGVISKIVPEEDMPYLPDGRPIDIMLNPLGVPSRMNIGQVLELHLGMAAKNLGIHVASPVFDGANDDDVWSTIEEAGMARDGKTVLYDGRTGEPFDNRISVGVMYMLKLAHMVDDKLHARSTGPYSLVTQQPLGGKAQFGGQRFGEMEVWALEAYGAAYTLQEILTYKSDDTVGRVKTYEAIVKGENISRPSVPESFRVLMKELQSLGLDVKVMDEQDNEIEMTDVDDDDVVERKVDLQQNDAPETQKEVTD
Assay [5] deals with E. coli RNA polymerase σ^70 holoenzyme (Escherichia coli, UniProt P0A8T7+P0A8V2). The assay can be described thus: Fluorescence-detected RNA polymerase assay, E. coli RNA polymerase. Type of assay: biochemical. The following applies: read-out: IC50 E. coli RNAP.
Assay [6] relates to Acinetobacter baumannii ATCC 19606. The assay can be described thus: MIC, spiral gradient endpoint assay, A. baumannii. The class given is cell-based. The note with it: ATCC19606; Acinetobacter baumannii ATCC 19606.
For assay [7], the system named is Mycobacterium tuberculosis H37Rv. The assay can be described thus: MIC, microplate Alamar Blue assay, M. tuberculosis. Type of assay: cell-based. On the technique in general: Alamar Blue is a resazurin reagent that responds to reducing activity.
Assay [8] relates to Francisella tularensis SCHU4. The assay can be described thus: microbe, parasite or virus in culture. Type of assay: cell-based. The following applies: Francisella tularensis, SCHU4, read-out: MIC F. tularensis SCHU4.
For assay [9], the system named is Brucella melitensis 16M. The assay can be described thus: microbe, parasite or virus in culture. Type of assay: cell-based. The following applies: Brucella melitensis, 16M, read-out: MIC B. melitensis 16M.
The subject of assay [10] is Burkholderia pseudomallei Human/Blood/OH/US/1994. The assay can be described thus: microbe, parasite or virus in culture. The class given is cell-based. The following applies: Burkholderia pseudomallei, read-out: MIC B. pseudomallei Human/Blood/OH.
Assay [11] concerns Bacillus anthracis Vollum 1b. Nature of the assay: microbe, parasite or virus in culture. The class given is cell-based. The following applies: Bacillus anthracis, VOLLUM1B, read-out: MIC B. anthracis Vollum-1b.
The subject of assay [12] is Yersinia pestis C092. The assay can be described thus: microbe, parasite or virus in culture. Type of assay: cell-based. The note with it: Yersinia pestis, C092, read-out: MIC Y. pestis C092.
For assay [13], the system named is Burkholderia mallei CHN7. Nature of the assay: microbe, parasite or virus in culture. Type of assay: cell-based. The following applies: Burkholderia mallei, CHN7, read-out: MIC B. mallei CHN7.

For `CCCCc1ccc2cc(C=C(C)C(=O)c3c(O)cc(C(C)CC/C=C/NC(=O)OC)oc3=O)oc2c1` (mixture of isomers) [APY84, methyl ((1E)-5-(3-(3-(6-butylbenzofuran-2-yl)-2-methylacryloyl)-4-hydroxy-2-oxo-2H-pyran-6-yl)hex-1-en-1-yl)carbamate], the values for the IC50 in assay [1], in [4] and in [5] were 20 nM, 60 nM and 2 nM, respectively. Besides, the MIC in [2] is 3 µg/mL; in assay [3] it was 0.1 µg/mL; in assay [6] it was over 40 µg/mL; in assay [7], 30 µg/mL.

For the compound `CCCCc1ccc2cc(C=C(C)C(=O)c3c(O)cc(C(C)CC/C=C/NC(=O)OC)oc3=O)sc2c1` (mixture of isomers) [APY86, methyl ((1E)-5-(3-(3-(6-butylbenzo[b]thiophen-2-yl)-2-methylacryloyl)-4-hydroxy-2-oxo-2H-pyran-6-yl)hex-1-en-1-yl)carbamate], the IC50 (in general, the point on the concentration scale where inhibition reaches its midpoint) in [1] came out at 1000 nM; in [4], 300 nM; in assay [5] it was 20 nM. For the same compound, the MIC in assay [2] is over 40 µg/mL; in assay [3], 0.2 µg/mL; in [6], over 40 µg/mL; in assay [7] it was over 50 µg/mL.

For the compound `COC(=O)N/C=C/CCC(C)c1cc(O)c(C(=O)C(C)=Cc2ccc(CCCO)s2)c(=O)o1` (mixture of isomers) [APY94, methyl ((1E)-5-(4-hydroxy-3-(3-(5-(3-hydroxypropyl)thiophen-2-yl)-2-methylacryloyl)-2-oxo-2H-pyran-6-yl)hex-1-en-1-yl)carbamate], the IC50 in assay [1] and in [5] was over 6000 nM throughout. Further, the values for the MIC in assay [2], in [3] and in assay [6] were over 40 µg/mL, 3 µg/mL and over 40 µg/mL, respectively.

As to `COC(=O)N/C=C/CCC(C)c1cc(O)c(C(=O)C(C)=Cc2ccc(CCCCC(F)(F)F)s2)c(=O)o1` (mixture of isomers) [APY98, methyl ((1E)-5-(4-hydroxy-3-(2-methyl-3-(5-(5,5,5-trifluoropentyl)thiophen-2-yl)acryloyl)-2-oxo-2H-pyran-6-yl)hex-1-en-1-yl)carbamate], the IC50 amounted to 40 nM in assay [1] and 6 nM in assay [5]. Besides, the MIC in assay [2] stood at 1 µg/mL; in assay [3], 0.1 µg/mL; in assay [6], 20 µg/mL; in assay [7], 50 µg/mL.

As to `COCCCc1ccc(C=C(C)C(=O)c2c(O)cc(C(C)CC/C=C/NC(=O)OC)oc2=O)s1` (mixture of isomers) [APY100, methyl ((1E)-5-(4-hydroxy-3-(3-(5-(3-methoxypropyl)thiophen-2-yl)-2-methylacryloyl)-2-oxo-2H-pyran-6-yl)hex-1-en-1-yl)carbamate], the values for the IC50 in assay [1] and in [5] were 1000 nM and 60 nM, respectively. Further, the MIC in [2] is over 40 µg/mL; in assay [3] it was 1 µg/mL; in assay [6], over 40 µg/mL.

`COC(=O)N/C=C/CCC(C)c1cc(O)c(C(=O)C(C)=Cc2ccc(OC)s2)c(=O)o1` (mixture of isomers) [APY101, methyl ((1E)-5-(4-hydroxy-3-(3-(5-methoxythiophen-2-yl)-2-methylacryloyl)-2-oxo-2H-pyran-6-yl)hex-1-en-1-yl)carbamate]: the IC50 in assay [1] and in assay [5] was over 6000 nM in each case. For the same compound, the MIC in [2] is over 40 µg/mL; in assay [3], 3 µg/mL; in [6], over 40 µg/mL.

For the compound `CCOc1ccc(C=C(C)C(=O)c2c(O)cc(C(C)CC/C=C/NC(=O)OC)oc2=O)s1` (mixture of isomers) [APY102, methyl ((1E)-5-(3-(3-(5-ethoxythiophen-2-yl)-2-methylacryloyl)-4-hydroxy-2-oxo-2H-pyran-6-yl)hex-1-en-1-yl)carbamate], the IC50 in assay [1] came to 500 nM; in assay [5], 200 nM. Moreover, the MIC was 10 µg/mL in assay [2], 1 µg/mL in assay [3], over 40 µg/mL in [6] and 30 µg/mL in assay [7].

For `CCCOc1ccc(C=C(C)C(=O)c2c(O)cc(C(C)CC/C=C/NC(=O)OC)oc2=O)s1` (mixture of isomers) [APY103, methyl ((1E)-5-(4-hydroxy-3-(2-methyl-3-(5-propoxythiophen-2-yl)acryloyl)-2-oxo-2H-pyran-6-yl)hex-1-en-1-yl)carbamate], the IC50 in assay [1] and in assay [5] was 20 nM each time. Also, the MIC in assay [2] is 2 µg/mL; in assay [3], 0.4 µg/mL; in assay [6], over 40 µg/mL; in assay [7], 30 µg/mL.

As for `CCCCc1ccc2c(c1)cc(C=C(C)C(=O)c1c(O)cc(C(C)CC/C=C/NC(=O)OC)oc1=O)n2C` (mixture of isomers) [APY104, methyl ((1E)-5-(3-(3-(5-butyl-1-methyl-1H-indol-2-yl)-2-methylacryloyl)-4-hydroxy-2-oxo-2H-pyran-6-yl)hex-1-en-1-yl)carbamate], the values for the IC50 in assay [1] and in assay [5] were 200 nM and 8 nM, respectively. The MIC was 5 µg/mL in [2], 0.1 µg/mL in [3], 9 µg/mL in assay [6] and over 50 µg/mL in assay [7].

Consider `COC(=O)N/C=C/CCC(C)c1cc(O)c(C(=O)C(C)=Cc2cc3cc(CCC(C)C)ccc3n2C)c(=O)o1` (mixture of isomers) [APY105, methyl ((1E)-5-(4-hydroxy-3-(3-(5-isopentyl-1-methyl-1H-indol-2-yl)-2-methylacryloyl)-2-oxo-2H-pyran-6-yl)hex-1-en-1-yl)carbamate], for which the IC50 in assay [1] was 5000 nM; in [5] it was 40 nM. Also, the MIC in [2] is over 40 µg/mL; in assay [3] it was 2 µg/mL; in [6], over 40 µg/mL.

Turning to `COCc1ccc(C=C(C)C(=O)c2c(O)cc(C(C)CC/C=C/NC(=O)OC)oc2=O)s1` (mixture of isomers) [APY106, methyl ((1E)-5-(4-hydroxy-3-(3-(5-(methoxymethyl)thiophen-2-yl)-2-methylacryloyl)-2-oxo-2H-pyran-6-yl)hex-1-en-1-yl)carbamate], the IC50 was determined as 4000 nM in assay [1] and 500 nM in [5]. Also, the MIC in assay [2] was over 40 µg/mL; in assay [3], 3 µg/mL; in assay [6], over 40 µg/mL.

For the compound `COC(=O)N/C=C/CCC(C)c1cc(O)c(C(=O)C(C)=Cc2ccc(OCC(F)F)s2)c(=O)o1` (mixture of isomers) [APY138, methyl ((1E)-5-(3-(3-(5-(2,2-difluoroethoxy)thiophen-2-yl)-2-methylacryloyl)-4-hydroxy-2-oxo-2H-pyran-6-yl)hex-1-en-1-yl)carbamate], the MIC in assay [8] was over 50 µg/mL; in assay [9] it was 50 µg/mL; in assay [2] it was 10 µg/mL; in assay [3], 0.5 µg/mL; in [10], over 50 µg/mL; in assay [11] it was 50 µg/mL. Also, the MIC was 50 µg/mL in assay [12], over 50 µg/mL in assay [13], over 40 µg/mL in assay [6] and 10 µg/mL in assay [7]. In addition, the IC50 in assay [5] came out at 300 nM.

For `COC(=O)N/C=C/CCC(C)c1cc(O)c(C(=O)C(C)=Cc2ccc(OCCC(F)(F)F)s2)c(=O)o1` (mixture of isomers) [APY139, methyl ((1E)-5-(4-hydroxy-3-(2-methyl-3-(5-(3,3,3-trifluoropropoxy)thiophen-2-yl)acryloyl)-2-oxo-2H-pyran-6-yl)hex-1-en-1-yl)carbamate], the MIC in assay [8] was over 50 µg/mL; in [9], 10 µg/mL; in assay [2] it was 2 µg/mL; in [3], 0.2 µg/mL; in assay [10], over 50 µg/mL; in [11], 6 µg/mL. The MIC in [12] is 10 µg/mL; in assay [13], 50 µg/mL; in assay [6], over 40 µg/mL; in assay [7], 6 µg/mL. In assay [5], the IC50 was determined as 30 nM.

In the case of `COC(=O)N/C=C/CCC(C)c1cc(O)c(C(=O)C(C)=Cc2ccc(CCCCCF)s2)c(=O)o1` (stereo not drawn) [APY97, methyl ((1E)-5-(3-(3-(5-(5-fluoropentyl)thiophen-2-yl)-2-methylacryloyl)-4-hydroxy-2-oxo-2H-pyran-6-yl)hex-1-en-1-yl)carbamate], the MIC in [2] is 2 µg/mL (≈ 3.96 µM); in assay [3], 0.1 µg/mL (≈ 0.198 µM); in assay [6], over 40 µg/mL; in [7], over 50 µg/mL. Besides, the values for the IC50 in [4] and in [5] were 400 nM and 20 nM, respectively.

As to `CCC(C)Oc1ccc2c(c1)cc(C=C(C)C(=O)c1c(O)cc(C(C)CC/C=C/NC(=O)OC)oc1=O)n2C` (stereo not drawn) [APY122, methyl ((1E)-5-(3-(3-(5-(sec-butoxy)-1-methyl-1H-indol-2-yl)-2-methylacryloyl)-4-hydroxy-2-oxo-2H-pyran-6-yl)hex-1-en-1-yl)carbamate], the MIC in [8] was 50 µg/mL (≈ 93.2 µM); in [9], over 50 µg/mL; in assay [2], over 40 µg/mL; in assay [3], 0.5 µg/mL (≈ 0.932 µM); in assay [10], over 50 µg/mL; in [11], 50 µg/mL (≈ 93.2 µM). Further, the MIC in [12] is over 50 µg/mL; in [13], over 50 µg/mL; in assay [6] it was over 40 µg/mL; in assay [7], over 50 µg/mL. Also, the IC50 in assay [5] came to 100 nM.
